In data set [1] the test system is selenite-induced cataract in Wistar rat pups. In words: In vivo anti-cataract efficacy, selenite-induced cataract. The method, then: Animals were grouped into Group I (control), Group II (sodium selenite) and Group III (treatment).
Two hours later Sodium Selenite (25 μM/kg·bw of 5 ml/kg·bw) was injected subcutaneously to both group II and III animals, thereafter 5 μl of LP002-09 was instilled topically to the eyes of group III animals only.
All animals were observed individually through out the observation period for any clinical signs and mortality. On the examination day i.e. when the pups first opened their eyes, the development of cataract was observed by the presence or absence of opacity by dilating the pupil with 0.8% tropicamide.
The cataract was scored on a scale of 0 to 4 according to procedure described by Muranov et al., (2004). Grade 0 was a normal clear lens, Grade 1 was a subcapsular opacity; Grade 2 was nuclear cataract, Grade 3 was strong nuclear cataract; Grade 4 was dense opacity involving entire lens and the results have been presented in below table 1

The nature of data set [2]: Particle size distribution, Malvern particle size analyzer. The data set is classed as physicochemical. Conditions: laser diffraction. How it is done:
The study was conducted using Malvern particle size analyzer. The map of scattering intensity versus angle is the primary source of information used to calculate the particle size. The scattering of particles is accurately predicted by the Mie scattering model allowing accurate sizing across the widest possible dynamic range. During the laser diffraction measurement, particles are passed through a focused laser beam. These particles scatter light at an angle that is inversely proportional to their size. The angular intensity of the scattered light is then measured by a series of photosensitive detectors. The advantage of this study is that there is no sample preparation involved.
This is a clear indication that the process of nanoemulsification followed has effectively transformed the large sized particles to nanosized coated curcuminoid particles. Additional peaks can be observed which is contributed by the high molecular weight excipients used to prepare the formulation.

Where [3] appears, read: of 20 eyes, rat pups, sodium selenite s.c.

In the case of `O=[Se](O)O` [Sodium Selenite], the “Total Percentage of cataract” value in data set [1] (20 eyes, rat pups) was 100%. In data set [1] (cataract scale 0 to 4, LP002-09 P < 0.0001 vs. Sodium Selenite treated), the “Grade (Mean ± S.D.)” value was found to be 3.6 ± 0.68. Also, in data set [1] (setting [3]), the “Dense opacity involving entire lens, Score 4 (number of eyes)” value was 14; the “No Opacity, Score 0 (number of eyes)” value was 0; the “Nuclear cataract, Score 2 (number of eyes)” value stood at 2; the “Strong Nuclear cataract, Score 3 (number of eyes)” value was 4. For the same molecule, the “Subcapsular opacity, Score 1 (number of eyes)” value in data set [1] (setting [3]) is recorded as 0. Also, in data set [1] (percent of eyes), the “eyes with dense opacity type cataract” value is given as 70%, the “eyes with nuclear cataract” value is recorded as 10% and the “eyes with strong nuclear cataract” value is reported as 20%.
As for `COc1cc(/C=C/C(=O)CC(=O)/C=C/c2ccc(O)c(OC)c2)ccc1O` [unformulated curcumin 98%, Curcumin], the results for the particle size in data set [2] and in data set [2] (listed as curcumin) were 373 nm and 374 nm, respectively.

Source of the values: US8632815B2 (Laila Pharmaceutical Pvt., Ltd., priority 2008, dated 2014).
